Measurements taken from US20070072830A1, “Methods for treating diabetes” (Point Therapeutics, Inc., priority 2004, published 2007).
Like-named read-outs stand apart in the source and are kept apart here.

How the values were obtained:
Lewis rats = test system: Lewis rats
Protocol: (§1) Serum DPP-IV inhibition and observation of acute toxicity of amino boronic dipeptides in Lewis rats. […] After observations were completed or at the onset of a moribund state, humane euthanasia was performed by asphyxiation in 100% CO2.

[1] = biological target: T1, soluble recombinant human DPP-IV (Homo sapiens, UniProt P27487); test: In vitro inhibition of recombinant soluble DPP-IV by amino boronic dipeptides; format: biochemical; settings: assayed at 3 minutes, 78 minutes and 16 hours after addition of Ala-Pro-AFC
T1 construct: immunoglobulin kappa light chain secretion signal (pSecTag2-B) (N, cleaved yes); made in house; host or cells: 293T cells, transient transfection; culture supernatant used unpurified
T1 sequence (P27487 39-766): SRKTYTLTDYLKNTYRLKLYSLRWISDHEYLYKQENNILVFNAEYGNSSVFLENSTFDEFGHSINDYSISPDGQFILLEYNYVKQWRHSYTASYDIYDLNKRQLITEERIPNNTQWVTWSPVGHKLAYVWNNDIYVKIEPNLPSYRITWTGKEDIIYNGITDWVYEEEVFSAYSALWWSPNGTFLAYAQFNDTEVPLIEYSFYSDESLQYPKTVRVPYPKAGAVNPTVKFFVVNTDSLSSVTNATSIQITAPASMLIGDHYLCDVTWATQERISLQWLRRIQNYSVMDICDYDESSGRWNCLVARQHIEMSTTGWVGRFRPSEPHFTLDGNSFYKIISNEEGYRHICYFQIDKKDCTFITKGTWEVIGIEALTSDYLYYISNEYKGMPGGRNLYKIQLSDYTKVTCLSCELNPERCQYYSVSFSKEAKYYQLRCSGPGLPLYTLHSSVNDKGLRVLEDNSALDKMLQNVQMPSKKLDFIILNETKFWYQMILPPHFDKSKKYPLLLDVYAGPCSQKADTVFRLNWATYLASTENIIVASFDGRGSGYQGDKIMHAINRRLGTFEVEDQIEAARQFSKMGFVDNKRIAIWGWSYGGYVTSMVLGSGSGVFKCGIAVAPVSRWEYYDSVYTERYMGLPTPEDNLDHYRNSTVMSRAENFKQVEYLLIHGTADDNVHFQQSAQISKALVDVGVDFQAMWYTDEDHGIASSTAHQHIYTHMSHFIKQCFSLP
From the text: Production of soluble recombinant human DPP-IV. Based on information on the N-terminus of serum DPP-IV (15), a truncated DPP-IV was engineered in which a signal/leader sequence was joined to the residue in DPP-IV corresponding to the N-terminus of serum DPP-IV to allow secretion. The cDNA encoding the desired truncated human DPP-IV dimer enzyme was engineered into the mammalian secretion vector pSecTag2 (Cat# V900-20, InVitrogen Corporation). The vector, available in A, B or C versions, representing three possible phases for gene fusion, contained an immunoglobulin-kappa light chain secretion signal followed by a selection of restriction sites for gene insertion. The fusion required engineering a restriction site upstream of the chosen fusion amino acid in the 5′ end of the DPP-IV dimer enzyme nucleic acid in phase with the chosen restriction site (Sfi I) in the vector secretion sequence. The chosen fusion amino acid in the 5′ end of the DPP-IV (Ser39) was 3′ of the trans-membrane anchoring domain. The pSecTag2 version B and its Sfi I restriction site was chosen for the fusion because it minimizes the additional N-terminal, vector-encoded residues in the mature secreted protein.
Construction of the fusion was as follows. First, total RNA was isolated from the Caco-2 colorectal carcinoma cell line (ATCC HTB-37) by standard Trizol/phenol /chloroform methodology. The purified RNA (approx. 2.5 μg in a 20 μl reaction) was used to make cDNA using oligo-dT primer and a commercial reverse transcription (RT) kit (InVitrogen). […] The following thermal cycler program was used: 94° C. for 45 sec. initial denaturation, then 30 cycles of 94° C., 10 sec.; 48° C., 6 sec.; 60° C., 4 min; followed by 5-min. extension at 72° C. after cycling.
DNA from the plasmid encoding DPP-IV dimer enzyme was prepared on an approximately 400 μg scale from overnight 30 ml cultures in Luria broth with 100 μg ampicillin per ml using a commercial kit (Qiagen Maxiprep Kit).
In vitro assay of enzymatic activity of recombinant soluble DPP-IV and inhibition by amino boronic dipeptides. The assay reaction mixture consisted of 135 μl 50 mM HEPES/Na buffer pH 7.6, 140 mM NaCl, 10-15 μl enzyme-containing culture supernatant, dipeptide substrate Ala-Pro-(7-amino-4-trifluoromethyl coumarin) (Ala-Pro-AFC; Enzyme System Products, Dublin, Calif.) at typically 0.1-1 mM added from a 100 or 400 mM stock in dimethyl formamide. The reaction mixture was incubated at room temperature, and production of the fluorescent AFC product was measured in a fluorometer (excitation, 400 nm; emission 505 nm), either by continuous monitoring or after termination with a one to one-tenth volume of 1-M sodium acetate, pH 4.5. Fluorometric reading were made with a […] Spectra Max GeminiXS capable of reading 96-well microtiter plates. The inhibitory activity of amino boronic dipeptides was investigated by preincubation of assay reaction mixtures with varying concentrations of each compound for 10 minutes before the addition of the substrate Ala-Pro-AFC.

Zucker fa/fa rats = test: Rat oral glucose tolerance test (OGTT): glucose, insulin, GLP-1; format: in vivo; settings: 10 μmol/kg oral
From the text: Protocol for rat oral glucose tolerance test (OGTT). […] On days −11 to −8, rats were fitted with intra-arterial catheters under light isoflurane anesthesia. […] From 12:00 a.m.

ob/ob mice = test: Mouse oral glucose tolerance test (OGTT); format: in vivo
Protocol: Protocol for mouse oral glucose tolerance test (OGTT). The day of oral-glucose challenge was defined as day 0. […] Agents were administered by oral gavage. Mice were restricted to a diet of 50% of their individual calculated food intake from day −1 onwards. On day 0, blood glucose was measured at t−15 min. immediately followed by drug administration. At time point 0, glucose was administered by oral gavage (1 g/kg), and blood glucose was measured at time points 0, 30, 60, 120 and 240 minutes. Means±SE were calculated from the data of individual mice in drug-treatment groups 1 and 2.

serum DPP-IV [2] = biological target: T2, serum DPP-IV (Mus musculus, UniProt P28843); test: Serum DPP-IV inhibition in vivo in BALB/c mice after oral gavage; settings: 2 hours
T2 construct: from tissue; host or cells: serum of BALB/c mice dosed orally
T2 sequence (P28843 37-760 limits assumed): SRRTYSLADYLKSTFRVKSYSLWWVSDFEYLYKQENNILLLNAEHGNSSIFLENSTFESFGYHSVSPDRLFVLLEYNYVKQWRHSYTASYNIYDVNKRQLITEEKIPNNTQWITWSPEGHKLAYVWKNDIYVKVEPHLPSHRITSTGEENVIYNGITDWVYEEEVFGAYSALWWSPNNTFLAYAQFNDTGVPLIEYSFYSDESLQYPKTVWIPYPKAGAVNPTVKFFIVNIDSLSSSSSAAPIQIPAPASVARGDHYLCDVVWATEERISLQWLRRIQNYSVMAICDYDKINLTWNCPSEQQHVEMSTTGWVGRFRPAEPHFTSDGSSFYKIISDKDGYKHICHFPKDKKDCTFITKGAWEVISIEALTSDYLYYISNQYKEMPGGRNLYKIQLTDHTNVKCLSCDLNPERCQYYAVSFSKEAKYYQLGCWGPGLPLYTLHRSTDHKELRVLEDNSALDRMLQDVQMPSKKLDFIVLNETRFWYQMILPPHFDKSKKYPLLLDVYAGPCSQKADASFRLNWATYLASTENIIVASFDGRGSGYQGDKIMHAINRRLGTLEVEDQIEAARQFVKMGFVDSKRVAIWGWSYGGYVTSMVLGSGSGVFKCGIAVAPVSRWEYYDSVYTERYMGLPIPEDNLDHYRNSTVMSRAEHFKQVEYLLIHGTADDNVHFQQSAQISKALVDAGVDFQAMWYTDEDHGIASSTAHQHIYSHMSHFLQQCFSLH
Protocol: (§2) Assay of serum DPP-IV inhibition in vivo.
(§3) Assay ofserum DPP-IV inhibition and KC/CXCL1 levels in vivo. […] Each mouse received a single administration of each amino boronic dipeptide or saline, and blood samples were withdrawn from mice 2 hours later.
Serum DPP-IV activity was determined by reaction of a 10 μl volume of serum with 0.1 mM Ala-Pro-AFC (Enzyme System Products, Dublin, Calif.) in a 100 μl volume of 50 mM HEPES/Na buffer pH 7.6, 140 mM NaCl. […] Serum DPP-IV activity was expressed as fluorescent units (FU).

serum KC/CXCL1 = test: Serum KC/CXCL1 levels in vivo in BALB/c mice; settings: 0.2-200 μg/mouse oral, 2 hours
Protocol: as §3
Serum concentration of mouse KC/CXCL1 was determined by Quantikine enzyme-linked immunosorbent assay (ELISA; R&D Systems, Minneapolis, Minn.) according to the manufacturer's instructions. ELISA was performed in duplicate for each sample.

[3] = test system: human bone marrow stromal cells; test: G-CSF supernatant levels in human bone marrow stromal cell cultures; format: cell-based; settings: 1 to 10^4 nM, 24 hours in vitro
Protocol: Human bone marrow stromal cell cultures. Samples of normal human bone marrow were purchased from Cambrex Bioproducts (Walkersville, Md.) and mononuclear cells were purified over Ficoll-Hypaque (Nycomed, Oslo, Norway). Human stromal layers were established by seeding 4×10^7 mononuclear cells into T75 flasks (Coming) containing 20 ml MyeloCult medium (Stem Cell Technologies, Vancouver, BC) supplemented with 10^−6 M hydrocortisone (Sigma) and incubation at 37° C. in 100% humidified 5% CO2 in air. After one week, half the medium was exchanged, and the cultures incubated for approximately one week more, after which time, a semi-confluent cell layer was formed. Stromal cells were harvested by trypsinization using standard technique and 10^5 cells/well were seeded in multi-well plates in 1 ml of fully supplemented DMEM (InVitrogen, Carlsbad, Calif.). […] Multiwell cultures without the addition of amino boronic dipeptides served as controls. […] Supernatant concentrations of human G-CSF were determined by Quantikine enzyme-linked immunosorbent assay (ELISA; R&D Systems, Minneapolis, Minn.) according to the manufacturer's instructions. […] The effect of each amino boronic dipeptide on the level of supernatant G-CSF was determined by calculating a stimulation index (SI): SI=(mean G-CSF concentration in culture with amino boronic dipeptide)/(mean G-CSF concentration in control culture).

serum DPP-IV [4] = biological target: T3, serum DPP-IV (Rattus norvegicus, UniProt P14740); test: Serum DPP-IV inhibition in Lewis rats; format: in vivo; settings: single oral administration, 2 hours
T3 construct: from tissue; host or cells: serum of Lewis rats dosed in vivo
T3 sequence (P14740 37-767 limits assumed): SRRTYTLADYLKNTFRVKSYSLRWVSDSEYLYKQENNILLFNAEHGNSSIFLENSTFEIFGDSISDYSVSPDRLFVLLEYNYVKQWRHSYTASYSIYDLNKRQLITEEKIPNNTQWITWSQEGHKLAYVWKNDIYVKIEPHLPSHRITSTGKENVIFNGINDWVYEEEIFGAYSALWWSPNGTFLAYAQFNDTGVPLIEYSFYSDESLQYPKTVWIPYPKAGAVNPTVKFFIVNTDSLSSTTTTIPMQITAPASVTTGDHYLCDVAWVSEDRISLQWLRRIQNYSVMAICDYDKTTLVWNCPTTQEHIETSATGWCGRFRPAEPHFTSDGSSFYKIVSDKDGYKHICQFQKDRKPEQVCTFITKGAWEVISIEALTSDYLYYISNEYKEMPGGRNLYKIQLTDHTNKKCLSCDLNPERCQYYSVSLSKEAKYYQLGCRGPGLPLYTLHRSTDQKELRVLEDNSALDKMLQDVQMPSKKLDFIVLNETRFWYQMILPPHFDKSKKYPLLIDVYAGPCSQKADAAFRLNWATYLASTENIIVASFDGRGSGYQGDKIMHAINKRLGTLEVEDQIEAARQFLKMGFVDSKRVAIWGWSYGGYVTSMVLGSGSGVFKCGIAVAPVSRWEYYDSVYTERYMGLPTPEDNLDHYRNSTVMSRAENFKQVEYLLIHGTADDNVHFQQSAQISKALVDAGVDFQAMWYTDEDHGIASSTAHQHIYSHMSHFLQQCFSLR
Protocol: as §2, §1

[5] = Lewis rats, single dose, observed 5 days

SMILES	MTD (maximum tolerated dose) (Lewis rats; [5])	Persistence / reversibility of DPP-IV inhibition [1]	Effect on serum levels of KC/CXCL1 (serum KC/CXCL1)	further results
C[C@H](N)C(=O)N1CCC[C@H]1B(O)O [Ala-boroPro]	≧2,000 μg/kg			
NC(N)=NCCC[C@H](N)C(=O)N1CCC[C@H]1B(O)O [Arg-boroPro]	≧2,000 μg/kg	more rapidly reversible		
NC(=O)CC[C@H](N)C(=O)N1CCC[C@H]1B(O)O [Gln-boroPro]	≧800 μg/kg			
N[C@@H](CCC(=O)O)C(=O)N1CCC[C@H]1B(O)O [Glu-boroPro]		sustained DPP-IV inhibition	failed to affect serum levels of KC/CXCL1 at any of the doses tested	Blood plasma level of GLP-1 following oral glucose challenge (Zucker fa/fa rats): increased; Blood plasma level of insulin following oral glucose challenge (Zucker fa/fa rats): increased; Blood glucose excursion after oral glucose challenge (Zucker fa/fa rats; glucose 2 g/kg): reduced; Glucose excursion post oral glucose challenge (ob/ob mice; 1.0 μmol/kg oral, 15 minutes prior to glucose 1 g/kg): reduced; Anti-glycemic effect (area under the blood glucose curve) (ob/ob mice; single 1.0 μmol/kg dose, ANOVA): significant (P=0.0010); MTD (maximum tolerated dose) (Lewis rats; Lewis, rat, in vivo, 5 days): 15,000 μg/kg; Inhibition of serum DPP-IV activity (serum DPP-IV [2]; 20 and 200 μg doses per mouse, oral): maximally inhibited serum DPP-IV activity; ID50 (dose required to reduce serum DPP-IV activity by 50% of baseline) (serum DPP-IV [2]; BALB/c mice, single oral dose): 1 μg/mouse
CC[C@H](C)[C@H](N)C(=O)N1CCC[C@H]1B(O)O [Ile-boroPro]	120 µg/kg	sustained DPP-IV inhibition	stimulate increased serum levels of KC/CXCL1 in a dose-dependent manner	Stimulation of G-CSF levels in culture supernatants (stimulation index) [3]: stimulate increased levels of G-CSF
CC(C)C[C@H](N)C(=O)N1CCC[C@H]1B(O)O [Leu-boroPro]	200 µg/kg	more rapidly reversible	stimulate increased serum levels of KC/CXCL1 in a dose-dependent manner	Stimulation of G-CSF levels in culture supernatants (stimulation index) [3]: stimulate increased levels of G-CSF
NCCCC[C@H](N)C(=O)N1CCC[C@H]1B(O)O [Lys-boroPro]	≧2,000 μg/kg	more rapidly reversible		
CSCC[C@H](N)C(=O)N1CCC[C@H]1B(O)O [Met-boroPro]	160 µg/kg			
N[C@@H](Cc1ccccc1)C(=O)N1CCC[C@H]1B(O)O [Phe-boroPro]		more rapidly reversible		
O=C(C1CCCN1)N1CCCC1B(O)O (stereo not drawn) [Pro-boroPro]	≧2,000 μg/kg	more rapidly reversible		
N[C@@H](CO)C(=O)N1CCC[C@H]1B(O)O [Ser-boroPro]	4,000 μg/kg			
C[C@@H](O)[C@H](N)C(=O)N1CCC[C@H]1B(O)O [Thr-boroPro]	800 µg/kg			
CC(C)[C@H](N)C(=O)N1CCC[C@H]1B(O)O [Val-boroPro]	20 µg/kg		stimulate increased serum levels of KC/CXCL1 in a dose-dependent manner	ID50 (dose causing a 50% reduction in serum DPP-IV activity from baseline) (serum DPP-IV [4]): 0.009 mg/kg
